Source: patent publication US20240228562A1, “NOVEL LIPOCALIN MUTEINS SPECIFIC FOR CONNECTIVE TISSUE GROWTH FACTOR (CTGF)” (PIERIS PHARMACEUTICALS GMBH, priority 2021, published 2024)

Experiments:
[1] = test system: CCL-206 lung fibroblasts co-cultured with primary murine Epcam-positive epithelial progenitor cells; assay: Lung organoid formation model; format: cell-based; conditions: 14 days treatment; nintedanib 100 nM; SEQ ID NO: 74 at 100 nM
Method: The effect of CTGF-targeting lipocalin muteins was analyzed using an organoid model for lung regeneration. In this model, CCL-206 lung fibroblasts are co-cultured with freshly isolated primary murine Epcam-positive epithelial progenitor cells, and the number of formed organoids is analyzed after 14 days. TGF-b1 pre-treatment of CCL-206 fibroblasts leads to an impaired organoid formation and resembles an impairment of lung regeneration as for example observed in lung disease, such as IPF. The impaired formation of organoids can be rescued by treatment with different drugs, such as nintedanib, which is used as a positive control in this model. […] Analysis of organoid numbers confirmed the impairment of organoid formation by TGF-b1 stimulation.

[2] = test system: idiopathic pulmonary fibrosis (IPF); conditions: cited from earlier work; for Decline in lung function in IPF: FDA-approved drugs for IPF; for Tolerability in IPF patients: gastrointestinal and other drug-related tolerability issues
[3] = test system: human melanoma cell lines; conditions: cited from earlier work

| Molecule | Effect on TGF-b1 impaired organoid formation [1] | Decline in lung function in IPF [2] | Tolerability in IPF patients [2] | Migration of human melanoma cell lines [3] | Disease progression in patients suffering from IPF ([2]; phase 2 clinical trial) |
| --- | --- | --- | --- | --- | --- |
| COC(=O)c1ccc2c(c1)NC(=O)/C2=C(\Nc1ccc(N(C)C(=O)CN2CCN(C)CC2)cc1)c1ccccc1 [nintedanib] | partially rescued | slowing down the decline in lung function | not well-tolerated | – | – |
| Cc1ccc(=O)n(-c2ccccc2)c1 [pirfenidone] | – | slowing down the decline in lung function | not well-tolerated | – | – |
| FG-3019/pamrevlumab: anti-CTGF monoclonal antibody in clinical trials | – | – | – | inhibition of the migration | attenuated disease progression |
